Test: molar heat capacity at constant pressure
Details: 101.33 kPa, Crystal, Small (less than 1 g) adiabatic calorimetry

N[C@@H](CCC(=O)[O-])C(=O)[O-].N[C@@H](CCC(=O)[O-])C(=O)[O-].O.O.O.O.O.O.O.O.O.[Ho+3].[Ho+3].[O-][Cl+3]([O-])([O-])O.[O-][Cl+3]([O-])([O-])O.[O-][Cl+3]([O-])([O-])[O-].[O-][Cl+3]([O-])([O-])[O-] [diholmium tetraperchlorate bis-l-glutamate nonahydrate]
Details | molar heat capacity at constant pressure [J/K/mol]
78.47 K | 416.36
79.95 K | 427.06
81.58 K | 448.95
83.14 K | 457.5
84.69 K | 466.74
86.44 K | 480.65
88.37 K | 490.26
90.58 K | 502.33
93.05 K | 521.47
95.51 K | 537.31
97.87 K | 558.72
100.23 K | 562.37
102.52 K | 570.54
104.79 K | 579.03
107.01 K | 584.28
109.19 K | 599.35
111.54 K | 612.05
114.01 K | 619.47
116.69 K | 633.45
119.55 K | 640.47
122.36 K | 656.69
125.12 K | 670.24
127.84 K | 678.7
130.52 K | 691.49
133.16 K | 703.15
136.41 K | 717.73
140.25 K | 728.41
144.03 K | 745.38
147.75 K | 759.44
151.88 K | 781.07
156.39 K | 802.41
160.82 K | 822.03
165.17 K | 841.38
169.46 K | 860.32
173.69 K | 880.13
177.85 K | 903.04
181.91 K | 962.58
185.82 K | 1035.9
189.62 K | 1053.8
193.38 K | 1068
197.09 K | 1084.5
200.76 K | 1104.7
204.4 K | 1116.6
208 K | 1131.5
211.57 K | 1149.2
215.09 K | 1170.1
218.58 K | 1180.3
222.04 K | 1198
225.47 K | 1211.6
228.86 K | 1235.1
232.19 K | 1241.6
235.57 K | 1256.3
239.35 K | 1265.1
243.62 K | 1286.5
247.83 K | 1297.2
252.02 K | 1318.1
256.17 K | 1324
260.28 K | 1339.5
264.35 K | 1355.8
268.38 K | 1368.2
272.36 K | 1390.1
276.3 K | 1406.8
280.21 K | 1418.2
284.86 K | 1435.3
290.1 K | 1457.8
295.36 K | 1477.1
300.5 K | 1499
305.57 K | 1521.1
310.61 K | 1529.2
315.6 K | 1558.3
320.54 K | 1577.6
325.43 K | 1599.1
330.3 K | 1607
335.02 K | 1641.9
339.66 K | 1649.4
344.14 K | 1668.3

Source: the NIST ThermoML archive (doi:10.1016/j.tca.2005.11.021)
